Reference: ChEMBL document CHEMBL5500389, “Discovery of the Selective and Orally Available Galectin-1 Inhibitor GB1908 as a Potential Treatment for Lung Cancer” (J Med Chem, 2024)

Legend:
[1] = Efflux ratio of apparent permeability across apical to basal side over basal to apical side in human Caco-2 cells at 10 uM incubated for 90 mins by LC-MS/MS analysis
[2] = Stability in mouse hepatocytes assessed as hepatic intrinsic clearance at 2 uM measured per million cells for 15 to 120 mins by LC-MS/MS analysis; assay type: ADME, cell-based, Hepatocyte; conditions: time 15-120 min, read-out: CLH
[3] = Apparent permeability across basal to apical side in human Caco-2 cells at 10 uM incubated for 90 mins by LC-MS/MS analysis
physchem = conditions: octanol/potassium phosphate buffer, pH 7.4
Galectin-1 [4] = target: Galectin-1 (Mus musculus, UniProt P16045); test: Binding affinity to mouse galectin-1 assessed as dissociation constant by fluorescein probe based fluorescence polarization assay
Galectin-1 [5] = target: T1, Galectin-1 (Homo sapiens, UniProt P09382); test: Binding affinity to human galectin-1 assessed as dissociation constant by fluorescein probe based fluorescence polarization assay
[6] = Apparent permeability across apical to basal side in human Caco-2 cells at 10 uM incubated for 90 mins by LC-MS/MS analysis
[7] = Stability in human hepatocytes assessed as hepatic intrinsic clearance at 2 uM measured per million cells for 15 to 120 mins by LC-MS/MS analysis; assay type: ADME, cell-based, Hepatocyte; conditions: time 15-120 min, read-out: CLH
Galectin-1 [8] = target: T1, Galectin-1; test: Binding affinity to human galectin-1 assessed as dissociation constant by competitive fluorescence polarization assay
Galectin-3 [9] = target: Galectin-3 (Mus musculus, UniProt P16110); test: Binding affinity to mouse galectin-3 assessed as dissociation constant by competitive fluorescence polarization assay
Galectin-3 [10] = target: Galectin-3 (Homo sapiens, UniProt P17931); test: Binding affinity to human galectin-3 assessed as dissociation constant by competitive fluorescence polarization assay
[11] = Unbound fraction in human plasma at 1 uM incubated for 5 hrs by equilibrium dialysis method; assay type: ADME, cell-free

T1 sequence (P09382 whole entry): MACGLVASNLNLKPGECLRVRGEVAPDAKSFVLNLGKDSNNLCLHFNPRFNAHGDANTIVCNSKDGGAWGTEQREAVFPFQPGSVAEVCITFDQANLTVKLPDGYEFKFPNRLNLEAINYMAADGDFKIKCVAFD
Chain of Galectin-1 (Mus musculus, UniProt P16045) (P16045 whole entry): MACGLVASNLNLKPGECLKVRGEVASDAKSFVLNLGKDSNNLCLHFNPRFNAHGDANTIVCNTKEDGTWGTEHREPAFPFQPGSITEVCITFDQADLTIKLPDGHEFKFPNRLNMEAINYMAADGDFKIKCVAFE
Chain of Galectin-3 (Mus musculus, UniProt P16110) (P16110 whole entry): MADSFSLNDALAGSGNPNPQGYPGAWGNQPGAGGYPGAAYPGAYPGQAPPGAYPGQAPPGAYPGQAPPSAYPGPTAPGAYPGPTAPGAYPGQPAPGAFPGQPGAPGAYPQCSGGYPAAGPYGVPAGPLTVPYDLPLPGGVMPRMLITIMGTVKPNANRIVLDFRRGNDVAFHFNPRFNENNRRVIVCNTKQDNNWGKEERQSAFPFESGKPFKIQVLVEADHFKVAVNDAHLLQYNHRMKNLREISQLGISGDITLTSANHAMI
Chain of Galectin-3 (Homo sapiens, UniProt P17931) (P17931 whole entry): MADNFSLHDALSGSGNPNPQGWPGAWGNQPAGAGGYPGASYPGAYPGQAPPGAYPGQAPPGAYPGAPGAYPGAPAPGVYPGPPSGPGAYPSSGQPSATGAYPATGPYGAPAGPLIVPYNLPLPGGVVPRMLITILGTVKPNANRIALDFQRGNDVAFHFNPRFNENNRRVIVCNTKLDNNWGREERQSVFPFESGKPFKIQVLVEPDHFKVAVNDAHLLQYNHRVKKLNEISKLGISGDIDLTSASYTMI

Row | Structure (SMILES) | efflux ratio at 1.5 h, 10 µM [1] | hepatocyte CLint at 2 µM [2] [µL/min/1e6 cells] | Papp B→A at 1.5 h, 10 µM [3] [×10⁻⁶ cm/s] | logD at 1 h (physchem) | Kd (Galectin-1 [4]) [nM] | Kd (Galectin-1 [5]) [nM] | Papp A→B at 1.5 h, 10 µM [6] [×10⁻⁶ cm/s] | hepatocyte CLint at 2 µM [7] [µL/min/1e6 cells] | Kd (Galectin-1 [8]) [nM] | Kd (Galectin-3 [9]) [nM] | Kd (Galectin-3 [10]) [nM] | fraction unbound at 5 h, 1 µM [11]
1 | CO[C@@H]1[C@@H](n2cc(-c3csc(O)n3)nn2)[C@@H](O)[C@@H](CO)O[C@@H]1Sc1cc(Cl)c(F)c(Cl)c1 | 63 | < 1.5 | 57 | 3.3 | 43 | 34 | 0.9 | 2.5 |  |  |  | 
2 | OC[C@H]1O[C@H](Sc2cc(Cl)c(F)c(Cl)c2)[C@H](O)[C@@H](n2cc(-c3nccs3)nn2)[C@H]1O | 2.8 |  |  |  |  |  |  |  |  |  |  | 
3 | OC[C@H]1O[C@H](Sc2cc(Cl)c(F)c(Cl)c2)[C@H](O)[C@@H](n2cc(-c3cscn3)nn2)[C@H]1O | 3.4 |  |  |  |  |  | 8.8 |  |  |  |  | 
4 | OC[C@H]1O[C@@H](S[C@@H]2O[C@H](CO)[C@H](O)[C@H](n3cc(-c4csc(O)n4)nn3)[C@H]2O)[C@H](O)[C@@H](n2cc(-c3cc(F)c(F)c(F)c3)nn2)[C@H]1O |  |  |  |  |  |  |  |  | 4 | 34 | 1 | 
5 | CO[C@@H]1[C@@H](n2cc(-c3csc(N)n3)nn2)[C@@H](O)[C@@H](CO)O[C@@H]1Sc1ccc(Cl)c(Cl)c1 | 10 | < 1.5 | 38 | 2.9 | 99 | 112 | 3.8 | < 1.5 |  |  |  | 0.032

Further lines, results first:

Row | efflux ratio at 1.5 h, 10 µM [1] | hepatocyte CLint at 2 µM [2] [µL/min/1e6 cells] | Papp B→A at 1.5 h, 10 µM [3] [×10⁻⁶ cm/s] | logD at 1 h (physchem) | Kd (Galectin-1 [4]) [nM] | Kd (Galectin-1 [5]) [nM] | Papp A→B at 1.5 h, 10 µM [6] [×10⁻⁶ cm/s] | hepatocyte CLint at 2 µM [7] [µL/min/1e6 cells] | Kd (Galectin-1 [8]) [nM] | Kd (Galectin-3 [9]) [nM] | Kd (Galectin-3 [10]) [nM] | fraction unbound at 5 h, 1 µM [11] | Structure (SMILES)
6 | 87 |  | 52 | 3.8 |  | 3430 | 0.6 |  |  |  |  |  | CN(C)c1nc(-c2cn([C@@H]3[C@@H](O)[C@@H](Sc4cc(Cl)c(F)c(Cl)c4)O[C@H](CO)[C@@H]3O)nn2)cs1
7 | > 23 |  | 35 |  |  | 337 | < 1.5 |  |  |  |  |  | OC[C@H]1O[C@H](Sc2ccc(Cl)c(Cl)c2)[C@H](O)[C@@H](n2cc(-c3csc(O)n3)nn2)[C@H]1O
